Test: mn = molality of the nth substance listed, in mol/kg
Details: 298.15 K, 101 kPa, Liquid, Taylor dispersion method

Q: With `CCCCCCCCCCP(C)(C)=O` [decyldimethylphosphine oxide] + O as the compound, how does the binary diffusion coefficient (m1 = 0) read?
A: Its binary diffusion coefficient is 5.9e-10 m2/s.

Q: What about the binary diffusion coefficient (m1 = 0.002) of the same compound?
A: The binary diffusion coefficient was 5.8e-10 m2/s.

Q: What about the binary diffusion coefficient (m1 = 0.003) of the same compound?
A: The binary diffusion coefficient was 5.28e-10 m2/s.

Q: What about the binary diffusion coefficient (m1 = 0.004) of the same compound?
A: Its binary diffusion coefficient is 2.07e-10 m2/s.

Q: And the binary diffusion coefficient (m1 = 0.0077)?
A: Its binary diffusion coefficient is 1.75e-10 m2/s.

Q: What about the binary diffusion coefficient (m1 = 0.0111) of the same compound?
A: Its binary diffusion coefficient is 1.56e-10 m2/s.

Q: And the binary diffusion coefficient (m1 = 0.0176)?
A: Its binary diffusion coefficient is 1.69e-10 m2/s.

Q: What about the binary diffusion coefficient (m1 = 0.0215) of the same compound?
A: The binary diffusion coefficient was 1.63e-10 m2/s.

Q: And the binary diffusion coefficient (m1 = 0.0296)?
A: Its binary diffusion coefficient is 1.55e-10 m2/s.

Q: What about the binary diffusion coefficient (m1 = 0.04) of the same compound?
A: Its binary diffusion coefficient is 1.58e-10 m2/s.
